PubChem BioAssay AID2060892 (Molecular Pharmacology Branch, DTP, NCI, 2025)

Tested on: HOP-62 complex spheroids with HUVEC/MSC, viability
Experiment: Anticancer human tumor HOP-62 cell line growth inhibition [RAS];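 also: spheroids exposed to agents for seven days before readout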;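 as to viability, T/C: 100% = DMSO vehicle control viability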
Details: for IC50: curve of first compound; for viability, T/C: stronger effect = lower value
Source text: RAS pathway inhibitors in Combinations in Complex Spheroids
A high-throughput screen of multi-cell type tumor spheroids was designed to identify active combinations of RAS pathway inhibitors and targeted small molecules. Complex spheroids include a stromal component modeled by human endothelial cells (HUVEC) and fibroblasts modeled by human mesenchymal stem cells (MSCs). The concentration ranges selected for each drug and investigational agent were based upon clinically achievable concentrations if the clinical Cmax of the agent was known.
Compounds. The drugs and investigational agents: abemaciclib (NSC768073), cobimetinib (NSC768068), divarasib (GDC6063, NSC841802), docetaxel (NSC628503), GDC-1971 (RLY-1971, NSC841576), gemcitabine (NSC613327), inavolisib (NSC800729), ipatasertib (NSC767898), KB-0742 (NSC834161), MRTX-1133 (NSC836407), osimertinib (NSC779217), RMC-4630 (NSC839698), RMC-6236 (NSC851965), RMC-6291 (NSC852671), Ro-3306 (NSC812927), sapanisertib (NSC764658), SN-38 (NSC673596), staurosporine (NSC755774), SY5609 (NSC837396), and tovorafenib (DAY101, NSC766906), were obtained from the National Cancer Institute (NCI) Developmental Therapeutics Program Chemical Repository. The FDA-approved anticancer drug set is available from the NCI Developmental Therapeutics Program. […] The stock solutions were prepared in dimethyl sulfoxide (DMSO, Sigma-Aldrich, St. Louis, MO, cat. D2650) at 800-fold the tested concentration and stored at -70 degrees C prior to their use. All drugs and investigational agents were tested over a range starting from a high concentration at or near the clinical Cmax and decreasing in half-log increments. If the clinical Cmax for an agent had not been determined, the highest concentration tested was 10 microM.
Cell Culture. All cells were maintained in an incubator at 37 degrees C and 5% CO2 with 95% humidity. The PDC lines were cultured according to standard operating procedures established by the NCI PDMR. All PDCs were thawed and cultured in Matrigel-coated flasks prepared with a working solution of 1X Ham's F-12 nutrient mix, without supplementation (Invitrogen, Waltham, MA, cat. 11765054), 100 U/mL penicillin-streptomycin (Invitrogen, cat. 15140122), and 2.5% Matrigel (Corning Inc., Corning, NY, cat. 354248) for the first three passages. The 362531-283-R-J2-PDC and 782815-120-R-J1-PDC lines were cultured in 6C/Colon 1B media, which includes advanced DMEM/F-12 (Thermo Fisher Scientific, cat. 12634028), 10 mM HEPES (Thermo Fisher Scientific, cat. 15630080), 1X GlutaMAX supplement (Thermo Fisher Scientific, cat. 35050061), 0.1 mg/mL primocin (InvivoGen, San Diego, CA, cat. ant-pm-2), 10% defined fetal bovine serum, heat inactivated (HyClone Laboratories Inc., Logan, UT, cat. SH30070.03HI), 50% L-WRN conditioned media (ATCC, cat. CRL-3276), 1.25 mM N-Acetyl-L-cysteine (Sigma-Aldrich, cat. A9165), 10 mM nicotinamide (Sigma-Aldrich, cat. N0636), 1X B-27 supplement (Thermo Fisher Scientific, cat. 17504044), 1X N-2 supplement (Thermo Fisher Scientific, cat. 17502048), 50 ng/mL human EGF (Thermo Fisher Scientific, cat. PHG0311), and 10 microM Y-27632 dihydrochloride (Tocris Bioscience, cat. 1254). The K12877-001-R-J1-PDC line was cultured in 6I media, which includes all 6C/Colon 1B media plus 10 ng/mL human FGF-10 (PeproTech, cat. 100-26), 1 ng/mL human FGF-2 (PeproTech, cat. 100-18B), 1 µM prostaglandin E2 (Tocris Bioscience, cat. 2296), […] hydrocortisone (Sigma-Aldrich, cat. H4001), and […] bovine insulin (Sigma-Aldrich, cat. I6634). The K86415-001-R-J1-PDC line was cultured in 6D media, which includes all 6C/Colon 1B media components minus the L-WRN conditioned media. The 485176-168-R4-J1-PDC was cultured in PANC media, which includes all 6C/Colon 1B media plus 100 ng/mL human FGF-10 (PeproTech, cat. 100-26), 500 nM SB-431542 (Selleckchem, cat. S1067), and 10 nM gastrin (Tocris Bioscience, cat. 3006). […]

`CC(Nc1ccc2c(c1)OCCn1cc(N3C(=O)OCC3C(F)F)nc1-2)C(N)=O` (centres undefined) + C#Cc1c(F)ccc2cc(O)cc(-c3ncc4c(N5CC6CCC(C5)N6)nc(OCC56CCCN5CC(F)C6)nc4c3F)c12 gave an IC50 (second compound 0.0316 µM) of 1330 nM, an IC50 (second compound 0.1 µM) of 1610 nM and an IC50 (second compound 0.316 µM) of 1020 nM. For the same compound, the IC50 (second compound 1 µM) was 751 nM, the IC50 (second compound 3.16 µM) was 96.4 nM and the IC50 (second compound 10 µM) was less than 31.6 nM. It also gave a viability, T/C (second compound 0.0316 µM, first compound 0.0316 µM) of 80.5%, a viability, T/C (second compound 0.0316 µM, first compound 0.1 µM) of 69.2% and a viability, T/C (second compound 0.0316 µM, first compound 0.316 µM) of 54.6%. It also gave a viability, T/C (second compound 0.0316 µM, first compound 1 µM) of 59.8%, a viability, T/C (second compound 0.0316 µM, first compound 3.16 µM) of 42.8% and a viability, T/C (second compound 0.0316 µM, first compound 10 µM) of 32.9%. The viability, T/C (second compound 0.1 µM, first compound 0.0316 µM) was 85.6%, the viability, T/C (second compound 0.1 µM, first compound 0.1 µM) was 78.5% and the viability, T/C (second compound 0.1 µM, first compound 0.316 µM) was 57%. For the same compound, the viability, T/C (second compound 0.1 µM, first compound 1 µM) was 58.4%, the viability, T/C (second compound 0.1 µM, first compound 3.16 µM) was 45.9% and the viability, T/C (second compound 0.1 µM, first compound 10 µM) was 32.8%. The viability, T/C (second compound 0.316 µM, first compound 0.0316 µM) was 86.9%, the viability, T/C (second compound 0.316 µM, first compound 0.1 µM) was 68.9% and the viability, T/C (second compound 0.316 µM, first compound 0.316 µM) was 59.6%. It also gave a viability, T/C (second compound 0.316 µM, first compound 1 µM) of 52.9%, a viability, T/C (second compound 0.316 µM, first compound 3.16 µM) of 41.3% and a viability, T/C (second compound 0.316 µM, first compound 10 µM) of 31.4%. For the same compound, the viability, T/C (second compound 1 µM, first compound 0.0316 µM) was 78.5%, the viability, T/C (second compound 1 µM, first compound 0.1 µM) was 67.4% and the viability, T/C (second compound 1 µM, first compound 0.316 µM) was 53.5%. The viability, T/C (second compound 1 µM, first compound 1 µM) was 50.6%, the viability, T/C (second compound 1 µM, first compound 3.16 µM) was 39.2% and the viability, T/C (second compound 1 µM, first compound 10 µM) was 28.4%. It also gave a viability, T/C (second compound 3.16 µM, first compound 0.0316 µM) of 67.8%, a viability, T/C (second compound 3.16 µM, first compound 0.1 µM) of 41.7% and a viability, T/C (second compound 3.16 µM, first compound 0.316 µM) of 40%. It also gave a viability, T/C (second compound 3.16 µM, first compound 1 µM) of 32.3%, a viability, T/C (second compound 3.16 µM, first compound 3.16 µM) of 22.3% and a viability, T/C (second compound 3.16 µM, first compound 10 µM) of 15.1%. For the same compound, the viability, T/C (second compound 10 µM, first compound 0.0316 µM) was 31.3%, the viability, T/C (second compound 10 µM, first compound 0.1 µM) was 22.8% and the viability, T/C (second compound 10 µM, first compound 0.316 µM) was 19.2%. For the same compound, the viability, T/C (second compound 10 µM, first compound 1 µM) was 17.3%, the viability, T/C (second compound 10 µM, first compound 3.16 µM) was 12.6% and the viability, T/C (second compound 10 µM, first compound 10 µM) was 10.2%.

Compound `Cc1nc(N2CCC3(CC2)COC(C)C3N)c(CO)nc1Sc1ccnc(N)c1Cl` (centres undefined) + CCn1c(-c2cc(N3CCN(C)CC3)cnc2C(C)OC)c2c3cc(ccc31)-c1csc(n1)CC(NC(=O)C1CC1C)C(=O)N1CCCC(N1)C(=O)OCC(C)(C)C2 has an IC50 (second compound 0.000949 µM) of 1880 nM, an IC50 (second compound 0.003 µM) of 439 nM and an IC50 (second compound 0.00949 µM) of 124 nM. It also gave an IC50 (second compound 0.03 µM) of less than 31.6 nM, an IC50 (second compound 0.0949 µM) of less than 31.6 nM and an IC50 (second compound 0.3 µM) of less than 31.6 nM. It also gave a viability, T/C (second compound 0.000949 µM, first compound 0.0316 µM) of 110%, a viability, T/C (second compound 0.000949 µM, first compound 0.1 µM) of 98.2% and a viability, T/C (second compound 0.000949 µM, first compound 0.316 µM) of 50.6%. For the same compound, the viability, T/C (second compound 0.000949 µM, first compound 1 µM) was 63.7%, the viability, T/C (second compound 0.000949 µM, first compound 3.16 µM) was 56.7% and the viability, T/C (second compound 0.000949 µM, first compound 10 µM) was 21.8%. The viability, T/C (second compound 0.003 µM, first compound 0.0316 µM) was 83.8%, the viability, T/C (second compound 0.003 µM, first compound 0.1 µM) was 66.5% and the viability, T/C (second compound 0.003 µM, first compound 0.316 µM) was 47.2%. The viability, T/C (second compound 0.003 µM, first compound 1 µM) was 45.6%, the viability, T/C (second compound 0.003 µM, first compound 3.16 µM) was 33.1% and the viability, T/C (second compound 0.003 µM, first compound 10 µM) was 18.4%. For the same compound, the viability, T/C (second compound 0.00949 µM, first compound 0.0316 µM) was 71.4%, the viability, T/C (second compound 0.00949 µM, first compound 0.1 µM) was 49.3% and the viability, T/C (second compound 0.00949 µM, first compound 0.316 µM) was 40.6%. The viability, T/C (second compound 0.00949 µM, first compound 1 µM) was 31.8%, the viability, T/C (second compound 0.00949 µM, first compound 3.16 µM) was 24% and the viability, T/C (second compound 0.00949 µM, first compound 10 µM) was 19%. The viability, T/C (second compound 0.03 µM, first compound 0.0316 µM) was 46.5%, the viability, T/C (second compound 0.03 µM, first compound 0.1 µM) was 40.6% and the viability, T/C (second compound 0.03 µM, first compound 0.316 µM) was 36.9%. For the same compound, the viability, T/C (second compound 0.03 µM, first compound 1 µM) was 24.6%, the viability, T/C (second compound 0.03 µM, first compound 3.16 µM) was 16.8% and the viability, T/C (second compound 0.03 µM, first compound 10 µM) was 20.9%. For the same compound, the viability, T/C (second compound 0.0949 µM, first compound 0.0316 µM) was 37.9%, the viability, T/C (second compound 0.0949 µM, first compound 0.1 µM) was 32.6% and the viability, T/C (second compound 0.0949 µM, first compound 0.316 µM) was 27.4%. The viability, T/C (second compound 0.0949 µM, first compound 1 µM) was 20.6%, the viability, T/C (second compound 0.0949 µM, first compound 3.16 µM) was 13.9% and the viability, T/C (second compound 0.0949 µM, first compound 10 µM) was 17.9%. It also gave a viability, T/C (second compound 0.3 µM, first compound 0.0316 µM) of 37.1%, a viability, T/C (second compound 0.3 µM, first compound 0.1 µM) of 29.9% and a viability, T/C (second compound 0.3 µM, first compound 0.316 µM) of 28.8%. For the same compound, the viability, T/C (second compound 0.3 µM, first compound 1 µM) was 19.9%, the viability, T/C (second compound 0.3 µM, first compound 3.16 µM) was 18.4% and the viability, T/C (second compound 0.3 µM, first compound 10 µM) was 16%.
